Patent publication EP0974594A1, “Artemisinin derivatives as anti-infective agent” (The Hong Kong University of Science & Technology, priority 1998, dated 2000)
In brackets after ≈: the same amount, converted by molar mass. Where two headings read alike, the source gives them in different places.

Legend:
Format in all cases: cell-based
Eimeria tenella = test: Screening of compounds against Eimeria tenella cell cultures in vitro (chick kidney cell monolayers, microscopic evaluation); conditions: chick kidney cells, day 5 post infection
Experimental: (b) Screening of Compounds again Eimeria Tenella cell cultures in vitro
Cells from kidneys of 19 day old chicks are cultured as monolayers in 96-well plates (Falcon 3872) in a medium of Hanks lactalbumine hydrolysate, 5% fetal calf serum, 1% glutamine and 1% non-essential amino acids. After two days at 42°C under 5% CO2, the culture was infected with excised sporozoites of Eimeria tenella at about […] per well. Test compounds were dissolved in DMSO and diluted with culture medium to a maximum end concentration of 10µg ml^-1. The dilution steps were 1:10. On day 5 post infection, the cultures were evaluated under a microscope at 100-fold magnification and the condition of the host cells and the amount of intact schizonts and free merozoites was determined.

[1] = system: Neospora caninum tachyzoites; test: Screening of compounds against Neospora caninum cell cultures in vitro (microscopic evaluation of infected host cell monolayer); design: key: 0 = no effect; 1 = weak effect; 2 = full effect; T = cytotoxic; conditions: VERO or ED host cells, evaluation 4 days after treatment
Experimental: (a) Screening of compounds against Neospora Caninum cell cultures in vitro.
Screening was conducted in 96-well plates (Falcon 3872). A monolayer of host cells (VERO or ED) were placed on a cell culture plate. Non-infected monolayers of cells were cultured in two 50 ml tissue culture bottles (50 cm^3 cell culture area). The cell layer was detached with trypsin-EDTA (5 ml. Gibco 45300-019) in a CO2-culture cupboard at 37°C. After 10 minutes, most of the cells were detached. The cells were transferred with a 5 ml pipette into a 50 ml centrifuge tube (Greiner, B769331) containing about 1 ml warmed fetal calf serum. After centrifugation for 5 minutes at 1500 rpm (Varifuge 3.0, Heraeus), the liquid was removed and the cell pellet suspended in RPMI medium (100 ml, 95% RPMI 1640, 2% FCS, 1% L-glutamine, 1% sodium hydrogen carbonate, 1% penicillin/streptomycin). The cell suspension was pipetted into six 96-well plates at 150 µl per well. The coated cell culture plates were placed in an incubation cupboard at 37°C under 5% CO2 for 24 hours. The cells were then infected with Neospora caninum tachyzoites at a concentration of 48,000 tachyzoites per well. This was followed by incubation at 37°C under 5% CO2 for 24 hours.
The test compounds (0.5 - 1.5 mg) were weighed into 1.5 ml eppendorf vessels and dissolved in 1 ml dimethyl sulphoxide, corresponding to a dilution of about 1 x 10^-3 g ml^-1. The medium used for further dilution consisted of 87% RPMI 1640, 10% FCS, 1% L-glutamine, 1% sodium hydrogen carbonate, 1% penicillin/streptomycin. In the first screening, concentrations of 10^-5, 10^-6 and 10^-7 g ml^-1 were used. The diluted preparations were then transferred to the cell culture plates at a volume of 150 µl per well after 24 hour infection with Neospora caninum. For the first row, untreated medium was used; this row contained infected and uninfected cells as controls. The cell plate was incubated at 37°C under 5% CO2 for 5 days. Microscopic evaluation was conducted 4 days after treatment and 5 days after infection at a magnification of 25 x 10 in an inverse microscope according to the following evaluation scheme.

[2] = system: Plasmodium Falciparum D6 Strain (Chloroquine sensitive); test: In vitro screening against Plasmodium falciparum, radiolabelled hypoxanthine incorporation, D6 strain; conditions: for IC50 / IC90: Plasmodium falciparum; for IC50: read-out: In vitro activity: IC50; for IC90: read-out: In vitro activity: IC90
Text: (§1) (c) In Vitro Screening against Plasmodium Falciparum
Two parasite strains - W2 resistant to chloroquine, and D6 sensitive to chloroquine but resistant to mefloquine were used. In Table IV below, the best compounds should show no cross resistance between the two strains.
(§2) The assay relies on incorporation of radiolabelled hypoxanthine by the parasite and inhibition of incorporation is attributed to activity of known or candidate antimalarial drugs. For each assay, proven antimalarials such as chloroquine, mefloquine, quinine, artemisinin and pyrimethamine were used as controls. The incubation period was 66 hours, and the starting parasitemia was 0.2% with 1% hematocrit. The medium was an RPMI-1640 culture with no folate or p-aminobenzoic acid. Albumax rather than 10% normal heat inactivated human plasma was used as, with Albumax, less protein binding is observed, and compounds elicit slightly higher activities in this model. If a compound was submitted with no prior knowledge of activity, it was dissolved directly in dimethyl sulphoxide (DMSO), and diluted 400 fold with complete culture medium. The unknown compound was started at a maximum concentration of 50,000 ng ml^-1 and sequentially diluted 2-fold for 11 times to give a concentration range of 1048 fold. These dilutions were performed automatically by a Biomek 1000 Liquid Handling System in 96-well microtiter plates. The diluted drugs were then transferred to test plates, 200 µl of parasitized erythrocytes were added, and incubated at 37°C in a controlled environment of 5% CO2, 5% O2 and 90% N2. After 42 hours, 25 µl of ^3H-hypoxanthine was added, and the plates incubated for an additional 24 hours. After 66 hours, the plates were frozen at -70°C to lyse the red cells, and then thawed and harvested onto glass fiber filter mats in a 96-well harvester. The filter mats were then counted in a scintillation counter. For each drug, the concentration response profile was determined and 50%, 90% and 10% inhibitory concentrations (IC50, IC90 and IC10) were determined by a non-linear logistic dose response analysis program.
(§3) A prescreen format can be used wherein a 3-dilution assay may be used to determine activity at high medium or low concentrations. The concentrations were selected as 50,000, 500 and 50 ng ml^-1. These were performed in duplicate on a 96-well format plate with 14 test compounds and one known (standard) compound per plate. The system was automated with a Biomek diluter for mixing and diluting the drugs, and adding drugs and parasites to a test plate.
In the prescreen format, if the ANALYSIS FIELD (AF) has a "<", then the compound was "very active" and the IC values are most likely to be below the last dilution value (in nanograms/ml), which is listed next to AF. In most cases, these compounds were run again at lower starting concentration to determine the true IC value. If the AF has a ">", then the IC value is greater than the prescreen dilution value; thus "AF>250" means that the IC value is greater than 250 ng ml^-1 and no further screening is carried out. In such cases, values of 0.00 are entered for IC values.

[3] = system: Plasmodium Falciparum W2 Strain (Chloroquine resistant); test: In vitro screening against Plasmodium falciparum, radiolabelled hypoxanthine incorporation, W2 strain; conditions: for IC50 / IC90: Plasmodium falciparum; for IC50: read-out: In vitro activity: IC50; for IC90: read-out: In vitro activity: IC90
Experimental: as §1
Two parasite strains - W2 resistant to chloroquine, and D6 sensitive to chloroquine but resistant to mefloquine were used.
as §2, with “Albumax rather than 10% normal heat inactivated human plasma was used as, with Albumax, less protein binding is observed, and compounds elicit slightly higher activities in this model.” left out, “The unknown compound was started at a maximum concentration of 50,000 ng ml^-1 and sequentially diluted 2-fold for 11 times to give a concentration range of 1048 fold.” left out
as §3
In the prescreen format, if the […] […] If the AF has a ">", then the IC value is greater than the prescreen dilution value; thus "AF>250" means that the IC value is greater than 250 ng ml^-1 and no further screening is carried out. In such cases, values of 0.00 are entered for IC values.

[4] = D6 Strain (Chloroquine sensitive), 66 hours incubation

| SMILES | Evaluation (effectiveness) (Eimeria tenella; Dose 10^-6 g/ml) | Evaluation (effectiveness) (Eimeria tenella; Dose 10^-7 g/ml) | Evaluation (effectiveness) (Eimeria tenella; Dose 10^-8 g/ml) | Evaluation (observable effect) ([1]; Dose 10^-5 g/ml) | Evaluation (observable effect) ([1]; Dose 10^-6 g/ml) | In vitro activity: (IC10) [2, 4] [ng/mL] | IC50 [2, 4] [ng/mL] | IC90 [2, 4] [ng/mL] | IC50 ([3]; W2, 66 h) [ng/mL] | IC90 ([3]; W2, 66 h) [ng/mL] | In vitro activity: (IC10) ([3]; W2, 66 h) [ng/mL] | Evaluation (effectiveness) (Eimeria tenella; Dose 10^-5 g/ml) | Evaluation (observable effect) ([1]; Dose 10^-7 g/ml) | IC50 ([2]; D6, 66 h) [ng/mL] | IC90 ([2]; D6, 66 h) [ng/mL] | In vitro activity: (IC10) ([3]; W2 Strain (Chloroquine resistant), 66 hours incubation) [ng/mL] |
| --- | --- | --- | --- | --- | --- | --- | --- | --- | --- | --- | --- | --- | --- | --- | --- | --- |
| C[C@H]1[C@H](OC(=O)CCC(=O)[O-])O[C@@H]2O[C@@]3(C)CC[C@H]4[C@H](C)CC[C@@H]1[C@@]24OO3.[Na+] [Sodium Artesunate, sodium artesunate] | 2 (2 = active) | 2 (2 = active) | 0 (0 = inactive) | 2 | 0 | – | – | – | – | – | – | – | – | – | – | – |
| C[C@H]1[C@@H](OC(=O)c2ccc3c(c2)C(=O)c2ccccc2C3=O)O[C@@H]2O[C@@]3(C)CC[C@H]4[C@H](C)CC[C@@H]1[C@@]24OO3 [Example 7] | – | – | – | – | – | 0.27 | 0.44 (≈ 0.849 nM) | 0.71 (≈ 1.37 nM) | 0.48 (≈ 0.926 nM) | 1.1 (≈ 2.12 nM) | 0.21 | – | – | – | – | – |
| C[C@@H]1CC[C@H]2[C@@H](C)C(=O)O[C@@H]3O[C@@]4(C)CC[C@@H]1[C@]32OO4 [Artemisinin, artemisinin] | 1 (1 = weakly active) | 0 (0 = inactive) | – | 0 | – | – | – | – | – | – | – | 2 (2 = active) | – | – | – | – |
| C[C@H]1[C@@H](OC(=O)c2ccccc2)O[C@@H]2O[C@@]3(C)CC[C@H]4[C@H](C)CC[C@@H]1[C@@]24OO3 [Example 2, 10β-dihydroartemisinyl benzoate] | 2 (2 = active) | 0 (0 = inactive) | – | 2 | 1 | 0.02 | 0.03 (≈ 0.0772 nM) | 0.03 (≈ 0.0772 nM) | 0.07 (≈ 0.18 nM) | 0.21 (≈ 0.541 nM) | 0.03 | 2 (2 = active) | 0 | – | – | – |
| CC(=O)O[C@@H]1O[C@@H]2O[C@@]3(C)CC[C@H]4[C@H](C)CC[C@@H]([C@H]1C)[C@@]24OO3 [Example 1, 10-dihydroartemisinyl ethanoate] | – | 1 (1 = weakly active) | 0 (0 = inactive) | 2 | 1 | 127.91 | – | – | 119 (≈ 365 nM) | 163 (≈ 500 nM) | – | – | 0 | 172 (≈ 526 nM) | 231 (≈ 706 nM) | 86.88 |
